In general, IC50 refers to the concentration that inhibits the measured activity by half.

The series in a line: Antiglycation activity assessed as inhibition of glucose-mediated advanced glycation end product formation after 30 hrs by fluorescence spectrophotometry in presence of bovine serum albumin. Type of series: physicochemical.
As to `COc1ccc(N2C(=O)[C@H]3[C@@H](c4ccccc4O)N(c4ccccc4)O[C@H]3C2=O)cc1` (relative stereo), the IC50 was found to be 26.6 µM.
Under `O=C1[C@@H]2[C@@H](ON(c3ccccc3)[C@H]2c2ccccc2O)C(=O)N1c1ccccc1` (relative stereo) stands 64.8 µM.
Take `Cc1ccc(N2C(=O)[C@@H]3[C@@H](ON(c4ccccc4)[C@H]3c3ccccc3Cl)C2=O)cc1` (relative stereo): the IC50 was 23.9 µM.
With `COc1ccc(N2C(=O)[C@H]3[C@@H](c4ccccc4Cl)N(c4ccccc4)O[C@H]3C2=O)cc1` (relative stereo), the IC50 was determined as 8.63 µM.
Under `N=C(N)NN` [PIMAGEDINE] stands 40.5 µM; under `O=C(O)c1ccc(N2C(=O)[C@@H]3[C@@H](ON(c4ccccc4)[C@H]3c3ccccc3Cl)C2=O)cc1` (relative stereo), 127 µM; under `O=C(O)c1ccc(N2C(=O)[C@@H]3[C@@H](ON(c4ccccc4)[C@H]3c3ccccc3O)C2=O)cc1` (relative stereo), 63.9 µM.
Regarding `COc1ccc(N2C(=O)[C@@H]3[C@@H](ON(c4ccccc4)[C@H]3c3ccccc3Cl)C2=O)cc1` (relative stereo), the IC50 amounted to 24.2 µM.
As for `O=C1[C@@H]2[C@@H](ON(c3ccccc3)[C@H]2c2ccccc2Cl)C(=O)N1c1ccccc1` (relative stereo), the IC50 was found to be 30.9 µM.
Then `Cc1ccc(N2C(=O)[C@@H]3[C@@H](ON(c4ccccc4)[C@H]3c3ccccc3O)C2=O)cc1`, with 75 µM; and `O=C(O)c1ccc(N2C(=O)[C@H]3[C@@H](c4ccccc4Cl)N(c4ccccc4)O[C@H]3C2=O)cc1` (relative stereo), with 33 µM; and `Cc1ccc(N2C(=O)[C@H]3[C@@H](c4ccccc4Cl)N(c4ccccc4)O[C@H]3C2=O)cc1` (relative stereo), with 7.18 µM.
Then `O=C(O)c1ccc(N2C(=O)[C@H]3[C@@H](c4ccccc4O)N(c4ccccc4)O[C@H]3C2=O)cc1` (relative stereo), with 24.4 µM; and `COc1ccc(N2C(=O)[C@@H]3[C@@H](ON(c4ccccc4)[C@H]3c3ccccc3O)C2=O)cc1` (relative stereo), with 90.1 µM; and `O=C1[C@H]2[C@@H](c3ccccc3O)N(c3ccccc3)O[C@H]2C(=O)N1c1ccccc1` (relative stereo), with 25.9 µM.
Then `O=C1[C@H]2[C@@H](c3ccccc3Cl)N(c3ccccc3)O[C@H]2C(=O)N1c1ccccc1` (relative stereo), with 7.4 µM; and `Cc1ccc(N2C(=O)[C@H]3[C@@H](c4ccccc4O)N(c4ccccc4)O[C@H]3C2=O)cc1` (relative stereo), with 18.8 µM.

The values are drawn from ChEMBL document CHEMBL2321732, “Synthesis and evaluation of novel 2,3,5-triaryl-4H,2,3,3a,5,6,6a-hexahydropyrrolo[3,4-d]isoxazole-4,6-diones for advanced glycation end product formation inhibitory activity” (Bioorg Med Chem Lett, 2013).
